Measurements as given in PubChem BioAssay AID248 (DTP/NCI, 2004).
Where “and” joins values, the source holds several entries; their conditions need not be identical. Equal values may be shown once. Toxic doses and inconclusive results are not listed. Rule as the data show it: active = T/C of 150% or more; inactive = T/C below 125%.

Tested on: L1210 leukemia ip in BDF1 mice, survival T/C
Test: NCI In Vivo Anticancer Drug Screen. Data for tumor model L1210 Leukemia (intraperitoneal) in B6D2F1 (BDF1) mice
Details: endpoint: mean survival time, higher = longer survival
Procedure, shortened: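 Antitumor effect is assessed in tumor-bearing animals. Survival in the compound arm is compared with a vehicle-dosed control arm and expressed as their quotient.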

[1] = dose: 100.0 mg/kg/injection, schedule: Q04DX003 (ip), vehicle: Klucel (hydroxypropylcellulose) (HPC)
[2] = dose: 50.0 mg/kg/injection, schedule: Q01DX001 (ip), vehicle: carboxymethylcellulose (CMC)
[3] = dose: 100.0 mg/kg/injection, schedule: Q01DX001 (ip), vehicle: carboxymethylcellulose (CMC)
[4] = dose: 200.0 mg/kg/injection, schedule: Q01DX001 (ip), vehicle: carboxymethylcellulose (CMC)
[5] = dose: 100.0 mg/kg/injection, schedule: Q01DX009 (ip), vehicle: saline
[6] = dose: 100.0 mg/kg/injection, schedule: Q01DX001 (ip), vehicle: saline
[7] = dose: 200.0 mg/kg/injection, schedule: Q01DX001 (ip), vehicle: saline
[8] = dose: 400.0 mg/kg/injection, schedule: Q01DX001 (ip), vehicle: saline
[9] = dose: 100.0 mg/kg/injection, schedule: Q01DX009 (ip), vehicle: saline with Tween-80
[10] = dose: 200.0 mg/kg/injection, schedule: Q01DX009 (ip), vehicle: saline with Tween-80
[11] = dose: 400.0 mg/kg/injection, schedule: Q01DX009 (ip), vehicle: saline with Tween-80

Measured: T/C

Cc1cc(N(CCOS(C)(=O)=O)CCOS(C)(=O)=O)ccc1C=Nc1ccc(-c2csc(-c3ccccc3)n2)c(Cl)c1
inactive: dose: 20.0 mg/kg/injection, schedule: Q04DX003 (ip), vehicle: Klucel (hydroxypropylcellulose) (HPC) 121 % of control | dose: 60.0 mg/kg/injection, schedule: Q04DX003 (ip), vehicle: Klucel (hydroxypropylcellulose) (HPC) 122 % of control | dose: 80.0 mg/kg/injection, schedule: Q04DX003 (ip), vehicle: Klucel (hydroxypropylcellulose) (HPC) 120 % of control | [1] 122 % of control

Fc1cc(N(CCCl)CCCl)ccc1CN1CCCN(Cc2ccc(N(CCCl)CCCl)cc2F)C1c1ccc(N(CCCl)CCCl)cc1Cl
inactive: [2] 105 % of control | [3] 96 % of control | [4] 100 % of control | dose: 400.0 mg/kg/injection, schedule: Q01DX001 (ip), vehicle: carboxymethylcellulose (CMC) 102 % of control

Nc1cc2c3ccccc3c(F)cc2c2ccccc12
inactive: dose: 100.0 mg/kg/injection, schedule: Q01DX009 (ip), vehicle: Klucel (hydroxypropylcellulose) (HPC) 106 % of control | [1] 96 % of control | dose: 200.0 mg/kg/injection, schedule: Q01DX009 (ip), vehicle: Klucel (hydroxypropylcellulose) (HPC) 104 % of control | dose: 200.0 mg/kg/injection, schedule: Q04DX003 (ip), vehicle: Klucel (hydroxypropylcellulose) (HPC) 93 % of control | dose: 400.0 mg/kg/injection, schedule: Q01DX009 (ip), vehicle: Klucel (hydroxypropylcellulose) (HPC) 101 % of control | dose: 400.0 mg/kg/injection, schedule: Q04DX003 (ip), vehicle: Klucel (hydroxypropylcellulose) (HPC) 98 % of control

O=C1OC(=C(c2ccccc2)c2ccccc2)c2ccccc21
inactive: [5] 100 % of control | dose: 100.0 mg/kg/injection, schedule: Q04DX003 (ip), vehicle: saline with Tween-80 96 % of control | dose: 200.0 mg/kg/injection, schedule: Q01DX009 (ip), vehicle: saline 100 % of control | dose: 200.0 mg/kg/injection, schedule: Q04DX003 (ip), vehicle: saline with Tween-80 96 % of control | dose: 400.0 mg/kg/injection, schedule: Q04DX003 (ip), vehicle: saline with Tween-80 90 % of control

N/C(=N\O)c1c(Br)n(C2OC(CO)C(O)C2O)c2ncnc(N)c12 (stereo not given)
inactive: [6] 98 % of control | [7] 97 % of control | [8] 106 % of control

CC(C)C[n+]1cc([O-])on1
inactive: dose: 6.25 mg/kg/injection, schedule: Q01DX009 (ip), vehicle: Klucel (hydroxypropylcellulose) (HPC) 97 % of control | dose: 12.5 mg/kg/injection, schedule: Q01DX009 (ip), vehicle: Klucel (hydroxypropylcellulose) (HPC) 100 % of control

CN=C(NO)c1ccccc1C
inactive: [3] 100 % of control | [4] 97 % of control

CC1(c2cccc([N+](=O)[O-])c2)OCCO1
inactive: dose: 100.0 mg/kg/injection, schedule: Q01DX009 (ip), vehicle: other 100 % of control | dose: 100.0 mg/kg/injection, schedule: Q04DX003 (ip), vehicle: other 103 % of control | dose: 200.0 mg/kg/injection, schedule: Q01DX009 (ip), vehicle: other 98 % of control | dose: 200.0 mg/kg/injection, schedule: Q04DX003 (ip), vehicle: other 104 % of control | dose: 400.0 mg/kg/injection, schedule: Q01DX009 (ip), vehicle: other 104 % of control | dose: 400.0 mg/kg/injection, schedule: Q04DX003 (ip), vehicle: other 100 % of control

COc1ccc2c(c1)CCNC2CCO (stereo not given)
inactive: dose: 100.0 mg/kg/injection, schedule: Q04DX003 (ip), vehicle: saline 103 % of control

COC1CC(O[C@H]2CC[C@@]3(C)[C@H](CC[C@@H]4[C@@H]3CC[C@]3(C)[C@@H](C5=CC(=O)OC5)[C@@H](OC(C)=O)C[C@]43O)C2)OC(C)C1O (stereo not given in full)
inactive: dose: 5.0 mg/kg/injection, schedule: Q01DX001 (ip), vehicle: saline 94 % of control | dose: 10.0 mg/kg/injection, schedule: Q01DX001 (ip), vehicle: saline 108 % of control | dose: 20.0 mg/kg/injection, schedule: Q01DX001 (ip), vehicle: saline 100 % of control | dose: 40.0 mg/kg/injection, schedule: Q01DX001 (ip), vehicle: saline 103 % of control | [2] 98 % of control | dose: 80.0 mg/kg/injection, schedule: Q01DX001 (ip), vehicle: saline 114 % of control | [3] 104 % of control

N#CC(C(=O)c1ccccc1)c1ccccc1 (stereo not given)
inactive: dose: 62.5 mg/kg/injection, schedule: Q04DX002 (ip), vehicle: Klucel (hydroxypropylcellulose) (HPC) 108 % of control | dose: 125.0 mg/kg/injection, schedule: Q04DX002 (ip), vehicle: Klucel (hydroxypropylcellulose) (HPC) 96 % of control

Cc1ccc(COc2ccc(Cl)cc2Cn2ccnc2)cc1
inactive: [5] 102 % of control

COc1ccc(Cl)cc1NC(=O)Oc1ccccc1C(C)C
inactive: dose: 100.0 mg/kg/injection, schedule: Q01DX001 (ip), vehicle: saline with Tween-80 96 % of control | [9] 96 % of control | dose: 100.0 mg/kg/injection, schedule: Q04DX002 (ip), vehicle: saline with Tween-80 95 % of control and 106 % of control | dose: 200.0 mg/kg/injection, schedule: Q01DX001 (ip), vehicle: saline with Tween-80 102 % of control | [10] 98 % of control | dose: 200.0 mg/kg/injection, schedule: Q04DX002 (ip), vehicle: saline with Tween-80 92 % of control and 109 % of control | dose: 400.0 mg/kg/injection, schedule: Q01DX001 (ip), vehicle: saline with Tween-80 87 % of control | [11] 89 % of control | dose: 400.0 mg/kg/injection, schedule: Q04DX002 (ip), vehicle: saline with Tween-80 95 % of control and 91 % of control

O=C1OCC2Cc3cc4c(cc3C(c3ccc5c(c3)OCO5)=C12)OCO4 (stereo not given)
inactive: [6] 98 % of control | [7] 109 % of control | [8] 95 % of control

OCC1OC(n2cnc3ccccc32)C(O)C1O (stereo not given)
inactive: [6] 100 % of control | [7] 100 % of control | [8] 95 % of control

Nc1nc(N)c2nonc2n1
inactive: dose: 12.5 mg/kg/injection, schedule: Q01DX005 (ip), vehicle: other 97 % of control | dose: 25.0 mg/kg/injection, schedule: Q01DX005 (ip), vehicle: other 90 % of control | dose: 50.0 mg/kg/injection, schedule: Q01DX005 (ip), vehicle: other 92 % of control | dose: 100.0 mg/kg/injection, schedule: Q01DX005 (ip), vehicle: other 89 % of control | dose: 200.0 mg/kg/injection, schedule: Q01DX005 (ip), vehicle: other 92 % of control

CC1=CC2=C(C(=O)C1=O)C(C)CCC2C(C)C (stereo not given)
inactive: [6] 98 % of control | [7] 94 % of control

Cc1nc(N)nc(N)c1Cc1ccc(N=[N+]=[N-])cc1
inactive: dose: 25.0 mg/kg/injection, schedule: Q04DX002 (ip), vehicle: saline with Tween-80 98 % of control | dose: 50.0 mg/kg/injection, schedule: Q04DX002 (ip), vehicle: saline with Tween-80 113 % of control

COC(=O)c1cc(NC(=O)c2ccccc2F)cc(C(=O)OC)c1
inactive: dose: 100.0 mg/kg/injection, schedule: Q01DX009 (ip), vehicle: carboxymethylcellulose (CMC) 88 % of control | dose: 200.0 mg/kg/injection, schedule: Q01DX009 (ip), vehicle: carboxymethylcellulose (CMC) 90 % of control | dose: 400.0 mg/kg/injection, schedule: Q01DX009 (ip), vehicle: carboxymethylcellulose (CMC) 91 % of control

COC(=O)N(CCCCN(N=O)C(=O)OC)N=O
inactive: dose: 100.0 mg/kg/injection, schedule: Q04DX002 (ip), vehicle: Klucel (hydroxypropylcellulose) (HPC) 101 % of control | dose: 200.0 mg/kg/injection, schedule: Q04DX002 (ip), vehicle: Klucel (hydroxypropylcellulose) (HPC) 108 % of control

CCc1cccc(CC)c1N(C(C)=O)C(C)=O
inactive: [9] 98 % of control | [10] 104 % of control | [11] 102 % of control
